This is an account of results in ChEMBL document CHEMBL4477157, “Iridoid Glucosides and Diterpenoids from Caryopteris glutinosa” (J Nat Prod, 2016).

Structures are written as SMILES.

The test system of assay [1] is KGN. The experiment in a line: Upregulation of aromatase expression in human KGN cells at 10 to 50 uM after 24 hrs by Western blot analysis. The assay is classed as functional.
In assay [2] the test system is KGN. The assay can be described thus: Induction of estrogen biosynthesis in human KGN cells assessed as upregulation of E2 concentration preincubated for 24 hrs followed by testosterone addition for 24 hrs by magnetic particle based ELISA. The assay is classed as functional, cell-based.
Assay [3] has as its system KGN. The experiment in a line: Induction of estrogen biosynthesis in human KGN cells assessed as upregulation of E2 concentration at 25 uM preincubated for 24 hrs followed by testosterone addition for 24 hrs by magnetic particle based ELISA. The assay is classed as functional.

For the compound `COc1cc(/C=C/C(=O)OC[C@H]2O[C@@H](O[C@@H]3OC=C[C@@]4(O)[C@H](O)C[C@](C)(OC(C)=O)[C@@H]34)[C@H](O)[C@@H](O)[C@@H]2O)cc(OC)c1O`, the “fold change (FC)” value in assay [1] is given as 1.5. Also, in assay [2], the Activity entry was “Dose-dependent effect” and the EC50 is 11.1 µM. Moreover, the “fold change (FC)” value in assay [3] is given as 2.

For the compound `CC(=O)CC[C@@]1(C)[C@H](C)CC[C@@]2(C)C(CO)=CCC[C@H]12`, the “fold change (FC)” value was found to be 1.5 in assay [1] and 2 in assay [3]. Also, in assay [2], the Activity result was “Dose-dependent effect”. Moreover, the concentration giving a half-maximal response (EC50) in assay [2] was found to be 8 µM.
